According to PMC7329795 (Pharmacological Reports, 2020):
Like-named read-outs stand apart in the source and are kept apart here.

Tests used:
CYP2C9 [1] = target: T1, CYP2C9 (Homo sapiens, UniProt P11712); test: in vitro
Experimental: (§1) The final incubation volume was 0.5 ml. After a 30-min incubation, the reaction was stopped by adding 100 µl of acetonitrile. […] The final concentration of CYP2C9 was 50 pmol/ml. Concentrations of diclofenac and its metabolite 4′-hydroxydiclofenac, formed in liver microsomes or Supersomes 2C9, were assessed by the HPLC method with UV detection, as described previously.

CYP2C9 [2] = target: T1, CYP2C9; test: CYP2C9 activity, diclofenac 4′-hydroxylation, Supersomes CYP2C9; conditions: human, pH 7.4, probe diclofenac (4′-hydroxylation)
Experimental: as §1

[3] = target: human cDNA-expressed CYP2C9 (Homo sapiens, UniProt P11712); test: as above
Experimental: as §1

[4] = target: T2, human cDNA-expressed CYP2D6 (Homo sapiens, UniProt P10635)
CYP2C19 [5] = target: T3, CYP2C19 (Homo sapiens, UniProt P33261)
[6] = cited from earlier work
CYP2D6 [7] = target: T4, CYP2D6 (Homo sapiens, UniProt P10635); parameters: method as in PMID 26033329; conditions: psychiatric patients; cited from earlier work
CYP2D6 [8] = target: T4, CYP2D6; conditions: liver microsomes; Lineweaver–Burk's plots
[9] = cited from earlier work; remark: listed apart in the source
CYP1A2 [10] = target: T5, CYP1A2 (Homo sapiens, UniProt P05177); conditions: liver microsomes; Lineweaver–Burk's plots
T5 sequence (P05177 1-516): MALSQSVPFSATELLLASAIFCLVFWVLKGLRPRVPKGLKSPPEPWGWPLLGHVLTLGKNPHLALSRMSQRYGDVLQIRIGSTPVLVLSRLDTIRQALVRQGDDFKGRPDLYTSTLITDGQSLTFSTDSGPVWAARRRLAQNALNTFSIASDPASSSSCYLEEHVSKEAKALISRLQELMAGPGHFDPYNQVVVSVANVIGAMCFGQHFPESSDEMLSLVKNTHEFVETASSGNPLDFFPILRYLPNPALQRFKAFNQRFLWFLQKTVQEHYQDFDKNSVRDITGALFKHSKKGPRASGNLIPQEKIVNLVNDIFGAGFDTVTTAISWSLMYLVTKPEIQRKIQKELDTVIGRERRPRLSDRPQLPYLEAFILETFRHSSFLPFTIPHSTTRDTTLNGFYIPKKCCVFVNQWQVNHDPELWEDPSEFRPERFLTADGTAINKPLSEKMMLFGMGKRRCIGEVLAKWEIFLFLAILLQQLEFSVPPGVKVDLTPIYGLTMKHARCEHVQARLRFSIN

CYP1A2 [11] = target: T5, CYP1A2
[12] = target: T2, human cDNA-expressed CYP2D6; conditions: recombinant enzyme
[13] = cited from earlier work; remark: listed apart in the source
CYP3A4 [14] = target: T6, CYP3A4 (Homo sapiens, UniProt P08684)
CYP2C19 [15] = target: T3, CYP2C19; conditions: liver microsomes; asenapine 0.01-10 μM
[16] = target: human cDNA-expressed CYP3A4 (Homo sapiens, UniProt P08684)
CYP2D6 [17] = target: T4, CYP2D6
CYP3A4 [18] = target: T6, CYP3A4; test: in vitro; conditions: pH 7.4
CYP3A4 [19] = target: T6, CYP3A4; test: in vitro; conditions: pH 7.4; remark: listed apart in the source
[20] = clinical studies; cited from earlier work
[21] = substrate: CN1CCN(CCCN2c3ccccc3Sc3ccccc32)CC1
[22] = substrate: Cn1c(=O)c2c(ncn2C)n(C)c1=O

T6 sequence (P08684 whole entry): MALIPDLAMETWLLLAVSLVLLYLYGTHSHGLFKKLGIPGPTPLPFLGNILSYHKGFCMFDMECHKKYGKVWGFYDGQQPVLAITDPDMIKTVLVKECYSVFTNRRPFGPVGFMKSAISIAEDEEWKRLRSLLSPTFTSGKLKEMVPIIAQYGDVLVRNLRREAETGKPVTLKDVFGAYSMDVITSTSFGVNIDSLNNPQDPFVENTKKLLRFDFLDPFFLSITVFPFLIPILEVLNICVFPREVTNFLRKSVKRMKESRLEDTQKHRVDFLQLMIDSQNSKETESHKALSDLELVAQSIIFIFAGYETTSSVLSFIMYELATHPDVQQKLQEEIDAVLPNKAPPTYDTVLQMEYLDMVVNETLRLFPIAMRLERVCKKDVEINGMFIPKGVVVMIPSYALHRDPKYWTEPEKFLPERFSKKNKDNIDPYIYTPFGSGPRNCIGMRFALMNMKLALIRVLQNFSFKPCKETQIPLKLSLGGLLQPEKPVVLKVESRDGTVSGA
T4 sequence (P10635 whole entry): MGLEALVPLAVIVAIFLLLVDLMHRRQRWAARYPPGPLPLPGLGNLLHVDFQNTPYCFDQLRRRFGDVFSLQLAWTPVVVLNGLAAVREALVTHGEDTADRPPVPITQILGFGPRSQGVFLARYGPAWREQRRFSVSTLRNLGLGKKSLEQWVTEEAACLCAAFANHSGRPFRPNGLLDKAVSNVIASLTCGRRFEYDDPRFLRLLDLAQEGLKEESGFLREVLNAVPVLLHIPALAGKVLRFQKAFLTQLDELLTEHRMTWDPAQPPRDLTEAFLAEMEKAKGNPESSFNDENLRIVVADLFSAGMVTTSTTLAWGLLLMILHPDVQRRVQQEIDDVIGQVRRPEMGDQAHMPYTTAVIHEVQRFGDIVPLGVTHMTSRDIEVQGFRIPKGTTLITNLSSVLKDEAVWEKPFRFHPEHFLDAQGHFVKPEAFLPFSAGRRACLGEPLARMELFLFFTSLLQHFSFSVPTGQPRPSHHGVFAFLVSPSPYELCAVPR
T2 sequence (P10635 whole entry): as above
T1 sequence (P11712 whole entry): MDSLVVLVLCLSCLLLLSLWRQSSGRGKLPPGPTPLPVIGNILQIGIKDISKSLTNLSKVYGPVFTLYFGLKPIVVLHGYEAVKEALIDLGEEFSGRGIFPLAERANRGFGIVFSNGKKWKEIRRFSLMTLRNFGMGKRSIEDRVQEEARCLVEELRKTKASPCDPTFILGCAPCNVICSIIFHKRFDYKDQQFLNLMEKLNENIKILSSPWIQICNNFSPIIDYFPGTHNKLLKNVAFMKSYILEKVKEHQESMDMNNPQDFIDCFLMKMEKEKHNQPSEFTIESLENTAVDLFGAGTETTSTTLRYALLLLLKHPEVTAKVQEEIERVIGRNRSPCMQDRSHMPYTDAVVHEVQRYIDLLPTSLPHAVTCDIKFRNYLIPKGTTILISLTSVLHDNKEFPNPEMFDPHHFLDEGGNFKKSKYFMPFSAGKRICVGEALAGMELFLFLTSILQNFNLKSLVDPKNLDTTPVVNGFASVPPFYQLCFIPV
Chain of human cDNA-expressed CYP3A4 (P08684 whole entry): as the sequence (P08684 whole entry) above
Chain of human cDNA-expressed CYP2C9 (P11712 whole entry): as the sequence (P11712 whole entry) above

In the case of O=C(O)Cc1ccccc1Nc1c(Cl)cccc1Cl [diclofenac], the Km at 30 min (CYP2C9 [1]; human, pH 7.4) is reported as 137 µM, the Km at 30 min (CYP2C9 [2]) is reported as 132 µM and the “Vmax, diclofenac 4′-hydroxylation” value ([3]; Supersomes CYP2C9) is reported as 213.6 pmol/pmol CYP/min.

In the case of CN1CC2c3ccccc3Oc3ccc(Cl)cc3C2C1 (stereo not drawn) [Asenapine], the IC50 (CYP2C9 [1]) is reported as over 1000 µM, the “effect on the activity of CYP2C9” value (CYP2C9 [1]; liver microsomes, asenapine 0.01-10 μM) is reported as “did not affect” and the IC50 [4] is reported as 0.398 µM. The Ki [4] was 1.89 µM, the IC50 (CYP2C19 [5]) was over 1000 µM and the pKa ([6]; amine) was 9.64. The “log P” value ([6]; cationic form) was 1.4, the “log P” value ([6]; neutral form) was 4.9 and the pKa ([6]; protonated base) was 8.6. The “effect on the concentration of paroxetine (a CYP2D6 substrate) in the blood plasma” value (CYP2D6 [7]) was “doubled”, the “type of inhibition (CYP2D6)” value (CYP2D6 [8]) was “competitive” and the “bound to plasma proteins” value [9] was 95%. For the same molecule, the “type of inhibition (CYP1A2)” value (CYP1A2 [10]) was “mixed”, the IC50 (CYP1A2 [11]) was 0.697 µM and the Ki (CYP1A2 [11]) was 3.2 µM. The “type of inhibition (CYP2D6)” value [12] was “competitive”, the IC50 [3] was over 1000 µM and the “estimated terminal half-life (t1/2)” value ([13]; adults) was “approximately 24 h”. For the same molecule, the therapeutic plasma concentrations [13] was “up to 0.1 μM”, the “type of inhibition (CYP3A4)” value (CYP3A4 [14]; liver microsomes, Lineweaver–Burk's plots) was “non-competitive” and the “effect on the activity of CYP2C19” value (CYP2C19 [15]) was “did not affect”. The “type of inhibition (CYP3A4)” value ([16]; recombinant enzyme) was “non-competitive”, the IC50 (CYP2D6 [17]) was 0.391 µM and the Ki (CYP2D6 [17]) was 1.75 µM.

For C[C@]12CC[C@H]3[C@@H](CCC4=CC(=O)CC[C@@]43C)[C@@H]1CC[C@@H]2O [testosterone], the Km at 20 min (CYP3A4 [18]) was 283 µM, the Km at 30 min (CYP3A4 [19]) was 428 µM and the “Vmax, testosterone 6β-hydroxylation” value (CYP3A4 [14]; human liver microsomes) was 72.9 pmol/mg protein/min. The “Vmax, testosterone 6β-hydroxylation” value ([16]; Supersomes CYP3A4) was 42.9 pmol/pmol CYP/min.

In the case of O=C(CCCN1CCC(O)(c2ccc(Cl)cc2)CC1)c1ccc(F)cc1 [haloperidol], the “concentration in the liver relative to that in plasma” value [20] is given as 900 fold.

B1: CYP2C19 (Homo sapiens) (protein)
chain: MDPFVVLVLCLSCLLLLSIWRQSSGRGKLPPGPTPLPVIGNILQIDIKDVSKSLTNLSKIYGPVFTLYFGLERMVVLHGYEVVKEALIDLGEEFSGRGHFPLAERANRGFGIVFSNGKRWKEIRRFSLMTLRNFGMGKRSIEDRVQEEARCLVEELRKTKASPCDPTFILGCAPCNVICSIIFQKRFDYKDQQFLNLMEKLNENIRIVSTPWIQICNNFPTIIDYFPGTHNKLLKNLAFMESDILEKVKEHQESMDINNPRDFIDCFLIKMEKEKQNQQSEFTIENLVITAADLLGAGTETTSTTLRYALLLLLKHPEVTAKVQEEIERVIGRNRSPCMQDRGHMPYTDAVVHEVQRYIDLIPTSLPHAVTCDVKFRNYLIPKGTTILTSLTSVLHDNKEFPNPEMFDPRHFLDEGGNFKKSNYFMPFSAGKRICVGEGLARMELFLFLTFILQNFNLKSLIDPKDLDTTPVVNGFASVPPFYQLCFIPV
B1 gave a Km [21] of 199.9 µM and a Vmax [21] of 1.58 nmol/mg protein/min.

B2: CYP1A2 (Homo sapiens) (protein)
chain: T5 sequence (P05177 1-516)
With B2 the Km [22] was 709 µM and the Vmax [22] was 9.67 pmol/mg protein/min.
